In brackets after ≈: the same amount, converted by molar mass. Read-outs that look alike come from different tables or passages of the source.
Assays:
[1] = system: Staphylococcus aureus No. 50774; assay: In vivo efficacy against systemic infection; design: species or system male mice (ddY); details: NO.50774, in Mus musculus, 336 h, sc, twice, about 5 minutes and 6 hours after infection, read-out: ED50 (median effective dose)
Method: (§1) The contents in the vials (No. A and No. C) prepared in Example 17 were each dissolved in deionized water, and injections having various concentrations were prepared.
Compounds A, B, F, G, H and M were dissolved in deionized water. Compounds C, D, E and J were dissolved in an aqueous solution of sodium carbonate (pH 8-9) to prepare injections of various concentrations.
Each of the injections was administered to mice under the conditions described below, and the median effective doses (ED50) obtained are shown in Table II.
(§2) Mice: male mice (ddY) weighting about 20g
Staphylococcus aureus No. 50774;
Intravenous infection with 50 to 100
LD50 (about 5 × 10^8cells/mouse) of a
bacterial suspension in saline.
(§3) twice, about 5 minutes and 6 hours after
Staphylococcus aureus No. 50774 14 days
The numerals in the table show ED50 (mg/kg). ED50 values were
(§4) calculated in accordance with the Behrens-Kaerber method [Arch. Exp. Path

[2] = system: Pseudomonas aeruginosa No. 12; assay: In vivo efficacy against systemic infection; design: species or system male mice (ddY); details: NO.12, in Mus musculus, twice, about 5 minutes and 6 hours after infection, read-out: ED50 (median effective dose)
Method: as §1
(§5) Compounds A, B, F, G, H and M were dissolved in deionized water.
as §2
Pseudomonas aeruginosa No. 12;
(§6) Intraperitoneal infection with 50 to
(§7) of a bacterial suspension in tryptosoy
as §3
Pseudomonas aeruginosa No. 12
as §4

20 strains of bacteria = assay: In vitro antibacterial activity, overall conclusions; format: cell-based
Description: (§8) In vitro antibacterial activity against 20 strains of bacteria

Escherichia coli P-5101 [3] = assay: In vivo efficacy against systemic infection; design: species or system male mice (ddY); details: P5101, in Mus musculus, 168 h, twice, about 5 minutes and 6 hours after infection, read-out: ED50 (median effective dose)
Method: as §1, §5, §2, §6, §7, §3, §4

Escherichia coli P-140a = assay: In vitro antibacterial activity (MIC); format: cell-based
Description: as §8
(§9) The numerals in the table show minimum inhibitory concentrations (MIC)

Proteus rettgeri P-2503 = assay: In vitro antibacterial activity (MIC); format: cell-based; details: Providencia rettgeri, P2503; Proteus rettgeri P-2503; read-out: minimum inhibitory concentration (MIC)
Description: as §8, §9

Proteus mirabilis P-2381 = assay: In vitro antibacterial activity (MIC); format: cell-based
Description: as §8, §9

[4] = system: Streptococcus faecalis P-2473; assay: In vitro antibacterial activity (MIC); format: cell-based; details: Enterococcus faecalis
Description: as §8, §9

[5] = system: Corynebacterium pyogenes C-21; assay: In vitro antibacterial activity (MIC); format: cell-based; details: Rhodococcus (subgen. Prescottella) equi, C21; Corynebacterium pyogenes C-21; read-out: minimum inhibitory concentration (MIC)
Description: as §8, §9

Proteus morganii Kono = assay: In vitro antibacterial activity (MIC); format: cell-based; details: Morganella morganii, read-out: minimum inhibitory concentration (MIC)
Description: as §8, §9

[6] = system: Shigella flexneri 4a P-330; assay: In vitro antibacterial activity (MIC); format: cell-based; details: 4AP330, read-out: minimum inhibitory concentration (MIC)
Description: as §8, §9

[7] = system: Escherichia coli NIHJ JC-2; assay: In vitro antibacterial activity (MIC); format: cell-based
Description: as §8, §9

Escherichia coli P-5101 [8] = assay: In vitro antibacterial activity (MIC); format: cell-based
Description: as §8, §9

Shigella flexneri 2a = assay: In vitro antibacterial activity (MIC); format: cell-based; details: read-out: minimum inhibitory concentration (MIC)
Description: as §8, §9

[9] = system: Enterobacter cloacae P-2540; assay: In vitro antibacterial activity (MIC); format: cell-based
Description: as §8, §9

[10] = system: Staphylococcus aureus No. 50774; assay: In vitro antibacterial activity (MIC); format: cell-based
Description: as §8, §9

[11] = system: Staphylococcus aureus 209P JC-1; assay: In vitro antibacterial activity (MIC); format: cell-based; details: Staphylococcus aureus 209P JC-1; read-out: minimum inhibitory concentration (MIC)
Description: as §8, §9

[12] = system: Pseudomonas aeruginosa Tsuchijima; assay: In vitro antibacterial activity (MIC); format: cell-based; details: read-out: minimum inhibitory concentration (MIC)
Description: as §8, §9

[13] = system: Salmonella typhimurium S-9; assay: In vitro antibacterial activity (MIC); format: cell-based; details: Salmonella enterica, read-out: minimum inhibitory concentration (MIC)
Description: as §8, §9

[14] = system: Serratia mercescens IFO 3736; assay: In vitro antibacterial activity (MIC); format: cell-based
Description: as §8, §9

[15] = system: Pseudomonas aeruginosa No.12; assay: In vitro antibacterial activity (MIC); format: cell-based; details: Pseudomonas aeruginosa No.12; read-out: minimum inhibitory concentration (MIC)
Description: as §8, §9

[16] = system: Streptococcus pyogenes 65A; assay: In vitro antibacterial activity (MIC); format: cell-based; details: Streptococcus pyogenes 65A; read-out: minimum inhibitory concentration (MIC)
Description: as §8, §9

[17] = system: Klebsiella pneumoniae No. 13; assay: In vitro antibacterial activity (MIC); format: cell-based; details: Klebsiella pneumoniae No. 13; read-out: minimum inhibitory concentration (MIC)
Description: as §8, §9

[18] = system: Salmonella enteritidis No. 1891; assay: In vitro antibacterial activity (MIC); format: cell-based; details: Salmonella enterica, read-out: minimum inhibitory concentration (MIC)
Description: as §8, §9

[19] = Staphylococcus aureus, NO.50774, read-out: minimum inhibitory concentration (MIC)
[20] = Pseudomonas aeruginosa Tsuchijima
[21] = P2381, Proteus mirabilis P-2381, read-out: minimum inhibitory concentration (MIC)
[22] = P2473, Streptococcus faecalis P-2473, read-out: minimum inhibitory concentration (MIC)
[23] = NIHJJC2, Escherichia coli NIHJ JC-2, read-out: minimum inhibitory concentration (MIC)
[24] = P5101, Escherichia coli P-5101, read-out: minimum inhibitory concentration (MIC)
[25] = P2540, Enterobacter cloacae P-2540, read-out: minimum inhibitory concentration (MIC)
[26] = IFO3736, Serratia mercescens IFO 3736, read-out: minimum inhibitory concentration (MIC)
[27] = Salmonella enteritidis No. 1891

Compound: CCn1cc(C(=O)O)c(=O)c2cnc(N3CCNCC3)nc21 [Compound J, 5,8-Dihydro-8-ethyl-2-(1-piperazinyl)-5-oxopyrido[2,3-d]pyrimidine-6-carboxylic acid]
- ED50 [1]: > 50 mg/kg
- ED50 ([2]; iv): 42.7 mg/kg
- ED50 ([2]; sc): 37.7 mg/kg
- antibacterial activity (in words) (20 strains of bacteria; against Gram-positive bacteria): inferior antibacterial activity against Gram-positive bacteria
- antibacterial activity (in words) (20 strains of bacteria; against Gram-positive bacteria, listed as Pipemidic acid): does not show any marked antibacterial activity against Gram-positive bacteria
- ED50 (Escherichia coli P-5101 [3]; iv): 4.6 mg/kg
- ED50 (Escherichia coli P-5101 [3]; sc): 6.3 mg/kg
- MIC (Escherichia coli P-140a; Escherichia coli, read-out: minimum inhibitory concentration (MIC)): 3.13 µg/mL (≈ 10.3 µM)
- MIC (Proteus rettgeri P-2503): 6.25 µg/mL (≈ 20.6 µM)
- MIC (Proteus mirabilis P-2381; Proteus mirabilis, P2381, read-out: minimum inhibitory concentration (MIC)): 3.13 µg/mL (≈ 10.3 µM)
- MIC ([4]; P2473, read-out: minimum inhibitory concentration (MIC)): > 200 µg/mL
- MIC [5]: 25 µg/mL (≈ 82.4 µM)
- MIC (Proteus morganii Kono): 3.13 µg/mL (≈ 10.3 µM)
- MIC [6]: 1.56 µg/mL (≈ 5.14 µM)
- MIC ([7]; Escherichia coli, NIHJJC2, read-out: minimum inhibitory concentration (MIC)): 1.56 µg/mL (≈ 5.14 µM)
- MIC (Escherichia coli P-5101 [8]; Escherichia coli, P5101, read-out: minimum inhibitory concentration (MIC)): 3.13 µg/mL (≈ 10.3 µM)
- MIC (Shigella flexneri 2a): 3.13 µg/mL (≈ 10.3 µM)
- MIC ([9]; Enterobacter cloacae, P2540, read-out: minimum inhibitory concentration (MIC)): 1.56 µg/mL (≈ 5.14 µM)
- MIC [10, 19]: 25 µg/mL (≈ 82.4 µM)
- MIC [11]: 12.5 µg/mL (≈ 41.2 µM)
- MIC [12, 20]: 12.5 µg/mL (≈ 41.2 µM)
- MIC ([13]; TYPHIMURIUM): 3.13 µg/mL (≈ 10.3 µM)
- MIC ([14]; Serratia, IFO3736, read-out: minimum inhibitory concentration (MIC)): 6.25 µg/mL (≈ 20.6 µM)
- MIC [15]: 25 µg/mL (≈ 82.4 µM)
- MIC [16]: > 100 µg/mL
- MIC [17]: 6.25 µg/mL (≈ 20.6 µM)
- MIC ([18]; ENTERITIDIS): 1.56 µg/mL (≈ 5.14 µM)

Compound: O=CN1CCN(c2ncc3c(=O)c(C(=O)O)c[nH]c3n2)CC1 [Compound K, 5,8-Dihydro-2-(4-formyl-1-piperazinyl)-5-oxopyrido[2,3-d]pyrimidine-6-carboxylic acid]
- antibacterial activity (in words) (20 strains of bacteria; in vitro, Table I): do not substantially show antibacterial activity
- minimum inhibitory concentration (MIC) (Escherichia coli P-140a): > 200 µg/mL
- MIC (Proteus rettgeri P-2503): > 100 µg/mL
- MIC (Proteus mirabilis P-2381; [21]): > 50 µg/mL
- MIC [4, 22]: > 50 µg/mL
- MIC [5]: > 50 µg/mL
- MIC (Proteus morganii Kono; Proteus morganii Kono): > 200 µg/mL
- MIC [6]: > 100 µg/mL
- MIC [7, 23]: > 100 µg/mL
- MIC (Escherichia coli P-5101 [8]; [24]): > 100 µg/mL
- MIC (Shigella flexneri 2a): > 100 µg/mL
- MIC [9, 25]: > 200 µg/mL
- MIC [10, 19]: > 50 µg/mL
- MIC [11]: > 50 µg/mL
- MIC ([12]; Pseudomonas aeruginosa): > 200 µg/mL
- MIC ([13]; Salmonella typhimurium S-9): > 50 µg/mL
- MIC [14, 26]: > 100 µg/mL
- MIC [15]: > 200 µg/mL
- MIC [16]: > 100 µg/mL
- MIC [17]: > 200 µg/mL
- MIC [18, 27]: > 50 µg/mL

Compound: CC(=O)N1CCN(c2ncc3c(=O)c(C(=O)O)c[nH]c3n2)CC1 [Compound L, 5,8-Dihydro-2-(4-acetyl-1-piperazinyl)-5-oxopyrido[2,3-d]pyrimidine-6-carboxylic acid]
- antibacterial activity (in words) (20 strains of bacteria; in vitro, Table I): do not substantially show antibacterial activity
- minimum inhibitory concentration (MIC) (Escherichia coli P-140a): > 200 µg/mL
- MIC (Proteus rettgeri P-2503): > 100 µg/mL
- MIC (Proteus mirabilis P-2381; [21]): > 50 µg/mL
- MIC [4, 22]: > 50 µg/mL
- MIC [5]: > 50 µg/mL
- MIC (Proteus morganii Kono; Proteus morganii Kono): > 200 µg/mL
- MIC [6]: > 100 µg/mL
- MIC [7, 23]: > 100 µg/mL
- MIC (Escherichia coli P-5101 [8]; [24]): > 100 µg/mL
- MIC (Shigella flexneri 2a): > 100 µg/mL
- MIC [9, 25]: > 200 µg/mL
- MIC ([10]; Staphylococcus aureus No. 50774, read-out: minimum inhibitory concentration (MIC)): > 50 µg/mL
- MIC [11]: > 50 µg/mL
- MIC [12, 20]: > 200 µg/mL
- MIC ([13]; Salmonella typhimurium S-9): > 50 µg/mL
- MIC [14, 26]: > 100 µg/mL
- MIC [15]: > 200 µg/mL
- MIC [16]: > 100 µg/mL
- MIC [17]: > 200 µg/mL
- MIC [18, 27]: > 50 µg/mL
